Measured values from patent US20250051263A1, “NOVEL IONIZABLE LIPIDS AND LIPID NANOPARTICLES AND METHODS OF USING THE SAME” (Sail Biomedicines, Inc., priority 2021, published 2025).
Several values for one entry are separate records, joined by “and”; a condition that tells them apart may be missing. Equal entries are not always repeated.

Legend:
[1] = LNP size and polydispersity, Zetasizer Ultra; type: physicochemical
Source text: All other compositions (i.e., compositions of MC3 (a commercially available ionizable lipid having a chemical name of (6Z,9Z,28Z,31Z)-heptatriacont-6,9,28,31-tetraene-19-yl 4-(dimethylamino)butanoate, and compositions of novel ionizable lipids 7669, 7671, 7668, 767, 7650) are composed of ionizable lipid:structural lipid:sterol:PEG-lipid (SDA lipid #:DSPC:cholesterol:14:0 PEG2000 PE) at a molar ratio of […], respectively. Lipids are solubilized in ethanol. Compositions are then handled as above, except the formulations are maintained at ionizable lipid to mRNA N:P ratio of 6:1. The lipid mix and mRNA solution are mixed at a 1:3 ratio by volume, respectively, on a NanoAssemblr Ignite (Precision Nanosystems) at a total flow rate of 9 mL/min. Resulting compositions are then loaded into Slide-A-Lyzer G2 dialysis cassettes (10 k MWCO) and dialyzed in 200 times sample volume of 1×PBS for 4 hrs at room temp with gentle stirring. The PBS is refreshed, and the compositions are further dialyzed for at least 14 hrs at 4° C. with gentle stirring. The dialyzed compositions are then collected and concentrated by centrifugation at 2000×g using Amicon Ultra centrifugation filters (100 k MWCO). Concentrated particles are characterized for size, polydispersity, and particle concentration using Zetasizer Ultra (Malvern Panalytical) and for mRNA encapsulation efficiency using Quant-iT RiboGreen RNA Assay Kit (ThermoFisher Scientific).
The lipid mix and mRNA solution were mixed at a 1:3 ratio by volume, respectively, on the NanoAssemblr Ignite (Precision Nanosystems) at a total flow rate of 9 mL/min. Resulting formulations were then loaded into Slide-A-Lyzer G2 dialysis cassettes (10 k MWCO) and dialyzed in 200 times sample volume of 1×PBS for 2 hrs at room temperature. The PBS was refreshed, and the formulations were further dialyzed for at least 14 hrs at 4° C. with gentle stirring. The dialyzed formulations were then collected and concentrated by centrifugation at 3000×g using Amicon Ultra centrifugation filters (100 k MWCO). The concentrated formulations were characterized for size, polydispersity, and particle concentration using Zetasizer Ultra (Malvern Panalytical) and for mRNA encapsulation efficiency using Quant-iT RiboGreen RNA Assay Kit (ThermoFisher Scientific).
For each LNP composition, the lipid mix and mRNA solution were mixed at a 1:3 ratio by volume, respectively, on a NanoAssemblr Ignite (Precision Nanosystems) at a total flow rate of 9 mL/min. The resulting compositions were then loaded into Slide-A-Lyzer G2 dialysis cassettes (10 k MWCO) and dialyzed in 200 times sample volume of 1×PBS for 2 hours at room temperature with gentle stirring. The PBS was refreshed, and the compositions were further dialyzed for at least 14 hours at 4° C. with gentle stirring. The dialyzed compositions were then collected and concentrated by centrifugation at 3000×g using Amicon Ultra centrifugation filters (100 k MWCO). The concentrated particles were characterized for size, polydispersity, and particle concentration using Zetasizer Ultra (Malvern Panalytical) and for mRNA encapsulation efficiency using Quant-iT RiboGreen RNA Assay Kit (ThermoFisher Scientific).

[2] = TNS (pKa) assay, apparent LNP pKa; type: physicochemical; conditions: for pKa (TNS): Example 5 LNP lipid:DOPE:Plant Cholesterol:DMPE-PEG2k 35:16:46.5:2.5, FLUC/EPO 1:1 mRNA, N:P 6:1
Protocol: (protocol adapted from: A Novel Amino Lipid Series for mRNA Delivery: Improved Endosomal Escape and Sustained Pharmacology and Safety in Non-human Primates, Sabnis, Staci et al., Molecular Therapy, Volume 26, Issue 6, 1509-1519) 20 buffers (10 mM sodium phosphate, 10 mM sodium borate, 10 mM sodium citrate, and 150 mM sodium chloride, in Distilled Water) of unique pH values ranging from 3.0-12.0 were prepared using 1M sodium hydroxide and 1M hydrochloric acid. 3.25 uL of LNPs (0.04 mg/mL mRNA, in PBS) were incubated with 2 μL of TNS reagent (0.3 mM, in DMSO) and 90 μL of buffer for each pH value (described above) in a 96-well black-walled plate. Each pH condition was performed in triplicate wells. The TNS fluorescence was measured using a Biotek Cytation Plate reader at excitation/emission wavelengths of 321/445 nm. The fluorescence values were then plotted and fit using a 4-parameter sigmoid curve. From the fit, the pH value yielding the half-maximal fluorescence was calculated and reported as the apparent LNP pKa value.
For pKa measurement, a […] assay was conducted according to those described in Sabnis et al., Molecular Therapy, 26(6):1509-19), which is incorporated herein by reference in its entirety. Briefly, 20 buffers (10 mM sodium phosphate, 10 mM sodium borate, 10 mM sodium citrate, and 150 mM sodium chloride, in distilled Water) of unique pH values ranging from 3.0-12.0 were prepared using 1M sodium hydroxide and 1M hydrochloric acid. 3.25 μL of a LNP composition (0.04 mg/mL mRNA, in PBS) was incubated with 2 μL of TNS reagent (0.3 mM, in DMSO) and 90 μL of buffer for each pH value (described above) in a 96-well black-walled plate. Each pH condition was performed in triplicate wells. The TNS fluorescence was measured using a Biotek Cytation Plate reader at excitation/emission wavelengths of 321/445 nm. The fluorescence values were then plotted and fit using a 4-parameter sigmoid curve. From the fit, the pH value yielding the half-maximal fluorescence was calculated and reported as the apparent LNP pKa value.

[3] = Example 5 LNP lipid:DOPE:Plant Cholesterol:DMPE-PEG2k 35:16:46.5:2.5, FLUC/EPO 1:1 mRNA, N:P 6:1
[4] = LNP ionizable lipid:DOPE:Plant Chol.:DMPE-PEG2k 35:16:46.5:2.5 (Table 1)
[5] = LNP ionizable lipid:DSPC:Plant Chol.:DMPE-PEG2k 50:10:38.5:1.5

Row | SMILES | PDI [1, 3] | Size (nm) [1, 3] | pKa (TNS) [2] | PDI [1, 4] | Size (nm) [1, 4] | PDI [1, 5] | Size (nm) [1, 5] | pKa [2, 4] | pKa [2, 5]
1 | CCCCCCCCCOC(=O)CCCCCCCN(CCCCCCCC(=O)OC(CCCCCCCC)CCCCCCCC)CCNC(=O)CCC(=O)NCCN(CCCCCCCC(=O)OCCCCCCCCC)CCCCCCCC(=O)OC(CCCCCCCC)CCCCCCCC [Compound 2213, nonyl 8-[2-[[4-[2-[(8-nonoxy-8-oxo-octyl)-[8-(1-octylnonoxy)-8-oxo-octyl]amino]ethylamino]-4-oxo-butanoyl]amino]ethyl-[8-(1-octylnonoxy)-8-oxo-octyl]amino]octanoate] | 0.10 | 63.9 nm | 6.54 | – | – | – | – | – | –
2 | CCCCCCCCCCCOC(=O)CCCCCN(CCCCCCCC(=O)OC(CCCCCCCC)CCCCCCCC)CCOC(=O)OCCN(CCCCCCCC(=O)OC(CCCCCCCC)CCCCCCCC)CCCCCC(=O)OCCCCCCCCCCC [Compound 2218, 1-octylnonyl 8-[2-[2-[[8-(1-octylnonoxy)-8-oxo-octyl]-(6-oxo-6-undecoxy-hexyl)amino]ethoxycarbonyloxy]ethyl-(6-oxo-6-undecoxy-hexyl)amino]octanoate] | 0.09 | 70.0 nm | 4.34 | 0.17 and 0.09 | 71.28 nm and 70.00 nm | 0.05 | 96.55 nm | – | –
3 | CCCCCCCCCCCOC(=O)CCCCCN(CCCCCCCC(=O)OC(CCCCCCCC)CCCCCCCC)CCNC(=O)CC(=O)NCCN(CCCCCCCC(=O)OC(CCCCCCCC)CCCCCCCC)CCCCCC(=O)OCCCCCCCCCCC [Compound 2220, 1-octylnonyl 8-[2-[[3-[2-[[8-(1-octylnonoxy)-8-oxo-octyl]-(6-oxo-6-undecoxy-hexyl)amino]ethylamino]-3-oxo-propanoyl]amino]ethyl-(6-oxo-6-undecoxy-hexyl)amino]octanoate] | 0.17 | 71.3 nm | 6.02 | – | – | 0.03 | 89.17 nm | – | –
4 | CCCCCCCCCCCOC(=O)CCCCCN(CCCCCCCC(=O)OC(CCCCCCCC)CCCCCCCC)CCNC(=O)NCCN(CCCCCCCC(=O)OC(CCCCCCCC)CCCCCCCC)CCCCCC(=O)OCCCCCCCCCCC [Compound 2246, 1-octylnonyl8-[2-[2-[[8-(1-octylnonoxy)-8-oxo-octyl]-(6-oxo-6-undecoxy-hexyl)amino]ethylcarbamoylamino]ethyl-(6-oxo-6-undecoxy-hexyl)amino]octanoate] | 0.05 | 62.7 nm | 6.63 | – | – | – | – | – | –
5 | CCCCCCCCCCCOC(=O)CCCCCN(CCCCCCCC(=O)OC(CCCCCCCC)CCCCCCCC)CCN1CCN(CCN(CCCCCCCC(=O)OC(CCCCCCCC)CCCCCCCC)CCCCCC(=O)OCCCCCCCCCCC)CC1 [Compound 2248, 1-octylnonyl 8-[2-[4-[2-[[8-(1-octylnonoxy)-8-oxo-octyl]-(6-oxo-6-undecoxy-hexyl)amino]ethyl]piperazin-1-yl]ethyl-(6-oxo-6-undecoxy-hexyl)amino]octanoate] | 0.10 | 83.5 nm | 6.1 | – | – | – | – | – | –
6 | CCCCCCCCCCCOC(=O)CCCCCN(CCCCCCCC(=O)OC(CCCCCCCC)CCCCCCCC)CCNC(=O)/C=C/C(=O)NCCN(CCCCCCCC(=O)OC(CCCCCCCC)CCCCCCCC)CCCCCC(=O)OCCCCCCCCCCC [Compound 2252, 1-octylnonyl 8-[2-[[(E)-4-[2-[[8-(1-octylnonoxy)-8-oxo-octyl]-(6-oxo-6-undecoxy-hexyl)amino]ethylamino]-4-oxo-but-2enoyl]amino]ethyl-(6-oxo-6-undecoxy-hexyl)amino]octanoate] | 0.13 | 70.0 nm | 6.06 | 0.13 | 69.98 nm | 0.05 | 126.40 nm | 6.06 | 5.49
7 | C=C(CN(CCCCCCCC(=O)OC(CCCCCCCC)CCCCCCCC)CCCCCC(=O)OCCCCCCCCCCC)CN(CCCCCCCC(=O)OC(CCCCCCCC)CCCCCCCC)CCCCCC(=O)OCCCCCCCCCCC [Compound 2253, 1-octylnonyl 8-[2-[[[8-(1-octylnonoxy)-8-oxo-octyl]-(6-oxo-6-undecoxy-hexyl)amino]methyl]allyl-(6-oxo-6-undecoxy-hexyl)amino]octanoate] | 0.23 | 107.9 nm | 3.66 | 0.23 | 107.87 nm | 0.18 | 120.70 nm | 3.66 | 3.48
8 | CCCCCCCCCC(=O)OCCCCCCCN(CCCCCCCC(=O)OC(CCCCCCCC)CCCCCCCC)CCNC(=O)CCC(=O)NCCN(CCCCCCCOC(=O)CCCCCCCCC)CCCCCCCC(=O)OC(CCCCCCCC)CCCCCCCC [Compound 2272, 7-[2-[[4-[2-[7-decanoyloxyheptyl-[8-(1-octylnonoxy)-8-oxo-octyl]amino]ethylamino]-4-oxo-butanoyl]amino]ethyl-[8-(1-octylnonoxy)-8-oxo-octyl]amino]heptyl decanoate] | 0.07 | 68.7 nm | 6.48 | – | – | – | – | – | –
9 | CCCCCCCCC(CCCCCCCC)OC(=O)CCCCCCCN(CCCCCCCC(=O)OC(CCCCCCCC)CCCCCCCC)CCNC(=O)CCC(=O)NCCN(CCCCCCCC(=O)OC(CCCCCCCC)CCCCCCCC)CCCCCCCC(=O)OC(CCCCCCCC)CCCCCCCC [Compound 2275, 1-octylnonyl 8-[2-[[4-[2-[bis[8-(1-octylnonoxy)-8-oxo-octyl]amino]ethylamino]-4-oxo-butanoyl]amino]ethyl-[8-(1-octylnonoxy)-8-oxo-octyl]amino] octanoate] | 0.10 | 67.4 nm | 6.03 | – | – | – | – | – | –
10 | CCCCCCCCCCCNC(=O)CCCCCN(CCCCCCCC(=O)NC(CCCCCCCC)CCCCCCCC)CCNC(=O)CCC(=O)NCCN(CCCCCCCC(=O)NC(CCCCCCCC)CCCCCCCC)CCCCCC(=O)NCCCCCCCCCCC [Compound 2282, N,N′-bis[2-[[8-(1-octylnonylamino)-8-oxo-octyl]-[6-oxo-6-(undecylamino)hexyl]amino]ethyl]butanediamide] | 0.16 | 73.1 nm | 6.92 | – | – | – | – | – | –
11 | CCCCCCCCC(CCCCCCCC)OC(=O)CCCCCCCN(CCCCCCCC(=O)OC(CCCCCCCC)CCCCCCCC)CCNC(=O)CCCC(=O)NCCN(CCCCCCCC(=O)OC(CCCCCCCC)CCCCCCCC)CCCCCCCC(=O)OC(CCCCCCCC)CCCCCCCC [Compound 2320, 1-octylnonyl 8-[2-[[5-[2-[bis[8-(1-octylnonoxy)-8-oxo-octyl]amino]ethylamino]-5-oxo-pentanoyl]amino]ethyl-[8-(1-octylnonoxy)-8-oxo-octyl]amino]octanoate] | 0.15 | 126.1 nm | 6.07 | – | – | – | – | – | –
